# Target: T1, HMG-CoA reductase (Homo sapiens, UniProt P04035)
# T1 construct: endogenous in cells; host or cells: HepG2 (Korea Cell Line Bank)
# T1 sequence (P04035 1-888): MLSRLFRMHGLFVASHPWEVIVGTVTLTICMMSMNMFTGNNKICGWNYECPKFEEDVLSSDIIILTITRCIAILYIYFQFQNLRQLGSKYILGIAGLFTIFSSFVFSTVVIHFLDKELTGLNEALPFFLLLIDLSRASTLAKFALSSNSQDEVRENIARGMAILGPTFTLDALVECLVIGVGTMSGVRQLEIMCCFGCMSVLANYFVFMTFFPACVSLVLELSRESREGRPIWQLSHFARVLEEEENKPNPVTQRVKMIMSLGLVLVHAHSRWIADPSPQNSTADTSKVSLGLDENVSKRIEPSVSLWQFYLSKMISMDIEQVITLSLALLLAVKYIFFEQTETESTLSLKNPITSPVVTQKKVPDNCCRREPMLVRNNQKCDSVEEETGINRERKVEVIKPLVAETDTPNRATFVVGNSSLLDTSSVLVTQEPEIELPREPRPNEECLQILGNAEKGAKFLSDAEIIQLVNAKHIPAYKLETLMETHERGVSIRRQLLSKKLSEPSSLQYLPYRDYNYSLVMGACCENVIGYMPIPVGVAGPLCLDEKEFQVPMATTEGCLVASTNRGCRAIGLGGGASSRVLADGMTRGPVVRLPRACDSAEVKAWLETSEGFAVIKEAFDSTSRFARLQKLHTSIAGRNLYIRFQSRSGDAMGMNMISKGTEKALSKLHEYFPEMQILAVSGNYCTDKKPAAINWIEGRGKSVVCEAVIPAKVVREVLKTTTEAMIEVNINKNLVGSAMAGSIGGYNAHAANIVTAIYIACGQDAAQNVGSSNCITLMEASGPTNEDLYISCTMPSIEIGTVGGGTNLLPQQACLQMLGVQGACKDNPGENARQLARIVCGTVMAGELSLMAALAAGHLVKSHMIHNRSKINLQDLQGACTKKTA
# Experiment: HMG-CoA reductase (HMGCR) degradation in HepG2 cells by western blotting
# Type: cell-based
# Conditions: treated for 18 hours, ratio of HMG-CoA reductase to GAPDH, read-out: DC50
# Outline: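 HepG2 cells (passage P105–P110) treated 18 hours with compounds in 10-point three-fold dilutions from 3 μM. RIPA lysates (15 μg protein, BCA-quantified) run on SDS-PAGE and immunoblotted for HMGCR (1:500) with GAPDH (1:20000) as loading control, primary antibodies 16 hours at 4° C.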
row,SMILES,DC50
1,"C[C@H]1C=C2C=C[C@H](C)[C@H](CC[C@@H]3C[C@@H](O[Si](C)(C)C(C)(C)C)CC(=O)O3)[C@H]2[C@@H](OC(=O)NCc2cccc(CNC(=O)COc3cccc4c3C(=O)N(C3CCC(=O)NC3=O)C4=O)c2)C1 (stereo partly drawn) [Compound 78, (1S,3R,7S,8S,8aR)-8-(2-((2R,4R)-4-((tert-butyldimethylsilyl)oxy)-6-oxotetrahydro-2H-pyran-2-yl)ethyl)-3,7-dimethyl-1,2,3,7,8,8a-hexahydronaphthalen-1-yl (3-((2-((2-(2,6-dioxopiperidin-3-yl)-1,3-dioxoisoindolin-4-yl)oxy)acetamido)methyl)benzyl)carbamate]",< 50 nM
2,"C[C@H]1C=C2C=C[C@H](C)[C@H](CC[C@@H]3C[C@@H](O)CC(=O)O3)[C@H]2[C@@H](OC(=O)NCc2cccc(CNC(=O)COc3cccc4c3C(=O)N(C3CCC(=O)NC3=O)C4=O)c2)C1 (stereo partly drawn) [Compound 79, (1S,3R,7S,8S,8aR)-8-(2-((2R,4R)-4-hydroxy-6-oxotetrahydro-2H-pyran-2-yl)ethyl)-3,7-dimethyl-1,2,3,7,8,8a-hexahydronaphthalen-1-yl (3-((2-((2-(2,6-dioxopiperidin-3-yl)-1,3-dioxoisoindolin-4-yl)oxy)acetamido)methyl)benzyl)carbamate]",< 50 nM
3,"C[C@H]1C=C2C=C[C@H](C)[C@H](CC[C@@H]3C[C@@H](O[Si](C)(C)C(C)(C)C)CC(=O)O3)[C@H]2[C@@H](OC(=O)NCCC2CCN(C(=O)COc3cccc4c3C(=O)N(C3CCC(=O)NC3=O)C4=O)CC2)C1 (stereo partly drawn) [Compound 80, (1S,3R,7S,8S,8aR)-8-(2-((2R,4R)-4-((tert-butyldimethylsilyl)oxy)-6-oxotetrahydro-2H-pyran-2-yl)ethyl)-3,7-dimethyl-1,2,3,7,8,8a-hexahydronaphthalen-1-yl (2-(1-(2-((2-(2,6-dioxopiperidin-3-yl)-1,3-dioxoisoindolin-4-yl)oxy)acetyl)piperidin-4-yl)ethyl)carbamate]",< 50 nM
4,"C[C@H]1C=C2C=C[C@H](C)[C@H](CC[C@@H]3C[C@@H](O)CC(=O)O3)[C@H]2[C@@H](OC(=O)NCCC2CCN(C(=O)COc3cccc4c3C(=O)N(C3CCC(=O)NC3=O)C4=O)CC2)C1 (stereo partly drawn) [Compound 81, (1S,3R,7S,8S,8aR)-8-(2-((2R,4R)-4-hydroxy-6-oxotetrahydro-2H-pyran-2-yl)ethyl)-3,7-dimethyl-1,2,3,7,8,8a-hexahydronaphthalen-1-yl (2-(1-(2-((2-(2,6-dioxopiperidin-3-yl)-1,3-dioxoisoindolin-4-yl)oxy)acetyl)piperidin-4-yl)ethyl)carbamate]",< 50 nM
5,"C[C@H]1C=C2C=C[C@H](C)[C@H](CC[C@@H]3C[C@@H](O[Si](C)(C)C(C)(C)C)CC(=O)O3)[C@H]2[C@@H](OC(=O)N(C)CCOCCOCCNc2cccc3c2C(=O)N(C2CCC(=O)NC2=O)C3=O)C1 (stereo partly drawn) [Compound 82, (1S,3R,7S,8S,8aR)-8-(2-((2R,4R)-4-((tert-butyldimethylsilyl)oxy)-6-oxotetrahydro-2H-pyran-2-yl)ethyl)-3,7-dimethyl-1,2,3,7,8,8a-hexahydronaphthalen-1-yl (2-(2-(2-((2-(2,6-dioxopiperidin-3-yl)-1,3-dioxoisoindolin-4-yl)amino)ethoxy)ethoxy)ethyl)(methyl)carbamate]",< 50 nM
6,"C[C@H]1C=C2C=C[C@H](C)[C@H](CC[C@@H]3C[C@@H](O)CC(=O)O3)[C@H]2[C@@H](OC(=O)N(C)CCOCCOCCNc2cccc3c2C(=O)N(C2CCC(=O)NC2=O)C3=O)C1 (stereo partly drawn) [Compound 83, (1S,3R,7S,8S,8aR)-8-(2-((2R,4R)-4-hydroxy-6-oxotetrahydro-2H-pyran-2-yl)ethyl)-3,7-dimethyl-1,2,3,7,8,8a-hexahydronaphthalen-1-yl (2-(2-(2-((2-(2,6-dioxopiperidin-3-yl)-1,3-dioxoisoindolin-4-yl)amino)ethoxy)ethoxy)ethyl)(methyl)carbamate]",< 50 nM
7,"C[C@H]1C=C2C=C[C@H](C)[C@H](CC[C@@H]3C[C@@H](O[Si](C)(C)C(C)(C)C)CC(=O)O3)[C@H]2[C@@H](OC(=O)N2CCC(CCOCCNc3cccc4c3C(=O)N(C3CCC(=O)NC3=O)C4=O)CC2)C1 (stereo partly drawn) [Compound 84, (1S,3R,7S,8S,8aR)-8-(2-((2R,4R)-4-((tert-butyldimethylsilyl)oxy)-6-oxotetrahydro-2H-pyran-2-yl)ethyl)-3,7-dimethyl-1,2,3,7,8,8a-hexahydronaphthalen-1-yl4-(2-(2-((2-(2,6-dioxopiperidin-3-yl)-1,3-dioxoisoindolin-4-yl)amino)ethoxy)ethyl)piperidine-1-carboxylate]",< 50 nM
8,"C[C@H]1C=C2C=C[C@H](C)[C@H](CC[C@@H]3C[C@@H](O)CC(=O)O3)[C@H]2[C@@H](OC(=O)N2CCC(CCOCCNc3cccc4c3C(=O)N(C3CCC(=O)NC3=O)C4=O)CC2)C1 (stereo partly drawn) [Compound 85, (1S,3R,7S,8S,8aR)-8-(2-((2R,4R)-4-hydroxy-6-oxotetrahydro-2H-pyran-2-yl)ethyl)-3,7-dimethyl-1,2,3,7,8,8a-hexahydronaphthalen-1-yl4-(2-(2-((2-(2,6-dioxopiperidin-3-yl)-1,3-dioxoisoindolin-4-yl)amino)ethoxy)ethyl)piperidine-1-carboxylate]",< 50 nM
9,"C[C@H]1C=C2C=C[C@H](C)[C@H](CC[C@@H]3C[C@@H](O[Si](C)(C)C(C)(C)C)CC(=O)O3)[C@H]2[C@@H](OC(=O)NCCOCCNc2cccc3c2C(=O)N(C2CCC(=O)NC2=O)C3=O)C1 (stereo partly drawn) [Compound 86, (1S,3R,7S,8S,8aR)-8-(2-((2R,4R)-4-((tert-butyldimethylsilyl)oxy)-6-oxotetrahydro-2H-pyran-2-yl)ethyl)-3,7-dimethyl-1,2,3,7,8,8a-hexahydronaphthalen-1-yl (2-(2-((2-(2,6-dioxopiperidin-3-yl)-1,3-dioxoisoindolin-4-yl)amino)ethoxy)ethyl)carbamate]",< 50 nM
10,"C[C@H]1C=C2C=C[C@H](C)[C@H](CC[C@@H]3C[C@@H](O)CC(=O)O3)[C@H]2[C@@H](OC(=O)NCCOCCNc2cccc3c2C(=O)N(C2CCC(=O)NC2=O)C3=O)C1 (stereo partly drawn) [Compound 87, (1S,3R,7S,8S,8aR)-8-(2-((2R,4R)-4-hydroxy-6-oxotetrahydro-2H-pyran-2-yl)ethyl)-3,7-dimethyl-1,2,3,7,8,8a-hexahydronaphthalen-1-yl (2-(2-((2-(2,6-dioxopiperidin-3-yl)-1,3-dioxoisoindolin-4-yl)amino)ethoxy)ethyl)carbamate]",< 50 nM
11,"C[C@H]1C=C2C=C[C@H](C)[C@H](CC[C@@H]3C[C@@H](O[Si](C)(C)C(C)(C)C)CC(=O)O3)[C@H]2[C@@H](OC(=O)NCCCCOCCCCNc2cccc3c2C(=O)N(C2CCC(=O)NC2=O)C3=O)C1 (stereo partly drawn) [Compound 88, (1S,3R,7S,8S,8aR)-8-(2-((2R,4R)-4-((tert-butyldimethylsilyl)oxy)-6-oxotetrahydro-2H-pyran-2-yl)ethyl)-3,7-dimethyl-1,2,3,7,8,8a-hexahydronaphthalen-1-yl (4-(4-((2-(2,6-dioxopiperidin-3-yl)-1,3-dioxoisoindolin-4-yl)amino)butoxy)butyl)carbamate]",< 50 nM

# From patent US12479840B2, “HMG-CoA reductase degradation inducing compound” (Uppthera, priority 2020, dated 2025)
